Structures can show the parent of a compound that is named as a salt.

This assay deals with T1, human CGT (ceramide galactosyltransferase), CHO/CGT lysate (Homo sapiens, UniProt Q16880).
T1 construct: Full-length human CGT cDNA was cloned into the BamH1/Xho1 site of pcDNA3.1 (+); expressed in transfected cells; host or cells: Chinese hamster ovary (CHO) cells; lysate prepared with M-PER
T1 sequence (Q16880 21-541): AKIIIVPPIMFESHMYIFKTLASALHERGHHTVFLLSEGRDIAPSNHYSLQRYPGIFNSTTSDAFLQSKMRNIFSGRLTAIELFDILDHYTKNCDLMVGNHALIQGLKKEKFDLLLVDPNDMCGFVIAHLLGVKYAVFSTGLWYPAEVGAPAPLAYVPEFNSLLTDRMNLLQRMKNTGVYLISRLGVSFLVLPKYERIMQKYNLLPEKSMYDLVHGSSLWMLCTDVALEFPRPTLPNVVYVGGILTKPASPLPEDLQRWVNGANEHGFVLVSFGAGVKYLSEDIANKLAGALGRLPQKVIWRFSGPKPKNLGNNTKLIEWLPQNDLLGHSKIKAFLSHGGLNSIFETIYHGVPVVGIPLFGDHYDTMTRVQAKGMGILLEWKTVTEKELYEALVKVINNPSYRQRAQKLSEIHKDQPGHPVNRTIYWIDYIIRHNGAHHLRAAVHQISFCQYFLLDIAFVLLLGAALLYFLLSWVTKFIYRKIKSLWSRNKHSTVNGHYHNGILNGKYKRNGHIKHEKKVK
In words: CGT enzyme assay, RapidFire/MS/MS readout (Table 1 ranges with one asterisk *). The assay is classed as biochemical. As to conditions: RapidFire method (range with one asterisk *). The protocol:
Full-length human CGT cDNA was cloned into the BamH1/Xho1 site of pcDNA3.1 (+) mammalian expression vector (V90-20, Invitrogen, Carlsbad, Calif.) and the plasmid was transfected into Chinese hamster ovary (CHO) cells. Lysate was prepared using M-PER (Mammalian Protein Extraction Reagent, ThermoFisher Scientific, Grand Island, N.Y.) in the presence of a protease inhibitor cocktail (P8340, Sigma, Saint Louis, Mo.). Each 100 mm dish (100% confluent, approximately 1×10^7 cells) was lysed with 250 μL of M-PER containing protease inhibitors. Protein concentration was determined using a Pierce BCA protein assay kit (ThermoFisher Scientific). Four micrograms of CHO/CGT lysate was incubated with various concentrations of a compound (0.001 μM-50 μM) in 10 mM HEPES (pH 7.2) containing 35 μM dioleoylphosphatidylcholine, 5 mM MgCl2, 5 mM MnCl2, 1% BSA, 15 mM KCl, 1 mM EGTA, 8 mM CHAPS, 10 μM C6-NBD-dihydro-ceramide and 17.5 μM UDP-galactose in a final reaction volume of 20 μL at 37° C. for 1 hour. The final concentration of DMSO was 0.5% in both compound-treated and mock-treated samples. Tween 80 (0.01%) was optionally added to the reaction mixture to help solubilize the compounds. Each individual reaction was diluted with 80 μL of methanol:acetronitrile (1:3) containing 5 μM N-docdecanoyl-NBD-galactosylceramide (internal standard) to stop the reaction. 200 μL H2O:acetonitile (1:1) was added to precipitate the protein. After sufficient mixing, the plates were centrifuged at 2469 g for 38 minutes, 200 μL of supernatant was transferred to a LC/MS 96-deep well plate and a second spin was performed at 2469 g for 10 minutes. The final supernatant was injected in triplicate for RapidFire/MS/MS analysis.
Quantitative Analysis Using the RapidFire/MS/MS Method:
The quantitative analysis of C6-NBD-dihydro-ceramide and C6-NBD-dihydro-galactosylceramide was performed on a Rapid Fire 360 high-throughput mass spectrometry system (Agilent Technologies, Palo Alto, Calif.) coupled with a API4000^+ triple quadrupole mass spectrometer (Applied Biosystems, Concord, Ontario, Canada). RapidFire software packages, including RapidFire Control panel, RapidFire UI and RapidFire Integrator (Agilent Technologies), were used to control the RapidFire instrument and to process data. Analyst 1.6.2 software packages (Applied Biosystems) were used to control the MS system and acquire MS data. […] of sample was loaded on a micro-scale C4 solid-phase extraction (SPE) cartridge (Agilent Technologies) and salts were removed using water supplemented with 0.1% formic acid at the flow rate of 1.5 mL/min for 3 sec. C6-NBD-dihydro-ceramide and C6-NBD-dihydro-galactosylceramide were co-eluted into the mass spectrometer using acetonitrile containing 0.1% formic acid at the flow rate of 1.0 mL/min for 3 sec. The total cycle time of one injection was 8 secs. The MS/MS detection was performed in ESI negative mode. The mass transition of C6-NBD-dihydro-galactosylceramide was m/z 752.6→678.6 using a −40 V collision energy, the mass transition of C6-NBD-dihydro-ceramide was m/z 590.6→115.8 using a −40 V collision energy and the mass transition of N-docdecanoyl-NBD-galactosylceramide was m/z 820.9→746.3 using a −45 V collision energy.
The C6-NBD-dihydro-galactosylceramide reading was normalized first by dividing the peak area of C6-NBD-dihydro-galactosylceramide by the peak area of the internal standard, N-docdecanoyl-NBD-galactosylceramide. IC50 values (see Table 1, where data ranges with one asterix (*) correspond to analysis using the RapidFire/MS/MS method, and data ranges with two asterixes (**) correspond to analysis using the RapidFire/MS/MS method with 0.01% Tween added) were generated from sigmoidal dose-response curves (variable slope) with GraphPad Prism software (GraphPad Software, Inc., San Diego, Calif.) using the normalized peak areas of C6-NBD-dihydro-galactosylceramide or the percent inhibition of C6-NBD-dihydro-galactosylceramide accumulation relative to DMSO control. […]
In general, IC50 refers to the concentration at which inhibition is half-maximal. Low values mean inhibition by little substance, high ones a need for much substance. Regarding `NC1CC2CCC(C1)N2C(=O)[C@H](NS(=O)(=O)c1ccc(OCC2CCCCC2)cc1)C(F)(F)c1ccc(-c2ccccc2)cc1` (stereo partly drawn) [Compound 35-2, N-((2S)-1-([1,1′-biphenyl]-4-yl)-3-(3-amino-8-azabicyclo[3.2.1]octan-8-yl)-1,1-difluoro-3-oxopropan-2-yl)-4-(cyclohexylmethoxy) benzenesulfonamide trifluoroacetate], the IC50 fell in the range of 10 to 30 µM.

Molecule `NC1CC2CCC(C1)N2C(=O)[C@@H](NS(=O)(=O)c1ccc2cc(OC3CCCC3)ccc2c1)C(F)(F)c1ccc(-c2ccccc2)cc1` (stereo partly drawn) [Compound 36-1, N-((2R)-1-([1,1′-biphenyl]-4-yl)-3-(3-amino-8-azabicyclo[3.2.1]octan-8-yl)-1,1-difluoro-3-oxopropan-2-yl)-6-(cyclopentyloxy)naphthalene-2-sulfonamide trifluoroacetate] came in with an IC50 of less than 1 µM.

On to `NC1CC2CCC(C1)N2C(=O)[C@H](NS(=O)(=O)c1ccc2cc(OC3CCCC3)ccc2c1)C(F)(F)c1ccc(-c2ccccc2)cc1` (stereo partly drawn) [Compound 36-2, N-((2S)-1-([1,1′-biphenyl]-4-yl)-3-(3-amino-8-azabicyclo[3.2.1]octan-8-yl)-1,1-difluoro-3-oxopropan-2-yl)-6-(cyclopentyloxy)naphthalene-2-sulfonamide trifluoroacetate], for which the IC50 lay within 1 to 10 µM.

The molecule `CN([C@H](C(=O)N1C2CCC1CC(N)C2)C(F)(F)c1ccc(Br)cc1)S(=O)(=O)c1ccc2cc(OC3CCCCC3)ccc2c1` (stereo partly drawn) [Compound 37-1, N-((2R)-3-(3-amino-8-azabicyclo[3.2.1]octan-8-yl)-1-(4-bromophenyl)-1,1-difluoro-3-oxopropan-2-yl)-6-(cyclohexyloxy)-N-methylnaphthalene-2-sulfonamide trifluoroacetate] displayed an IC50 of less than 1 µM.

`CN([C@@H](C(=O)N1C2CCC1CC(N)C2)C(F)(F)c1ccc(Br)cc1)S(=O)(=O)c1ccc2cc(OC3CCCCC3)ccc2c1` (stereo partly drawn) [Compound 37-2, N-((2S)-3-(3-amino-8-azabicyclo[3.2.1]octan-8-yl)-1-(4-bromophenyl)-1,1-difluoro-3-oxopropan-2-yl)-6-(cyclohexyloxy)-N-methylnaphthalene-2-sulfonamide trifluoroacetate] yielded an IC50 of 30 to 100 µM.

`NC1CC2CCC(C1)N2C(=O)[C@@H](NS(=O)(=O)c1ccc2cc(OC3CCCC3)ccc2c1)C(F)(F)c1ccc2cc(Br)ccc2c1` (stereo partly drawn) [Compound 38-1, N-((2R)-3-(3-amino-8-azabicyclo[3.2.1]octan-8-yl)-1-(6-bromonaphthalen-2-yl)-1,1-difluoro-3-oxopropan-2-yl)-6-(cyclopentyloxy) naphthalene-2-sulfonamide trifluoroacetate]: the IC50 fell in the range of 1 to 10 µM.

With `NC1CC2CCC(C1)N2C(=O)[C@H](NS(=O)(=O)c1ccc2cc(OC3CCCC3)ccc2c1)C(F)(F)c1ccc2cc(Br)ccc2c1` (stereo partly drawn) [Compound 38-2, N-((2S)-3-(3-amino-8-azabicyclo[3.2.1]octan-8-yl)-1-(6-bromonaphthalen-2-yl)-1,1-difluoro-3-oxopropan-2-yl)-6-(cyclopentyloxy)naphthalene-2-sulfonamide trifluoroacetate], the IC50 was in the range of 1 to 10 µM.

For `NC1CC2CCC(C1)N2C(=O)[C@@H](NS(=O)(=O)c1ccc(OCC2CCCC2)cc1)C(F)(F)c1ccc2cc(Br)ccc2c1` (stereo partly drawn) [Compound 39-1, N-((2R)-3-(3-amino-8-azabicyclo[3.2.1]octan-8-yl)-1-(6-bromonaphthalen-2-yl)-1,1-difluoro-3-oxopropan-2-yl)-4-(cyclopentylmethoxy) benzenesulfonamide trifluoroacetate], the IC50 was 1 to 10 µM.

For `NC1CC2CCC(C1)N2C(=O)[C@H](NS(=O)(=O)c1ccc(OCC2CCCC2)cc1)C(F)(F)c1ccc2cc(Br)ccc2c1` (stereo partly drawn) [Compound 39-2, N-((2S)-3-(3-amino-8-azabicyclo[3.2.1]octan-8-yl)-1-(6-bromonaphthalen-2-yl)-1,1-difluoro-3-oxopropan-2-yl)-4-(cyclopentylmethoxy)benzenesulfonamide trifluoroacetate], the half-inhibitory concentration (IC50) is 10 to 30 µM.

On to `NC1CC2CCC(C1)N2C(=O)[C@@H](NS(=O)(=O)c1ccc(OCC2CCCCC2)cc1)C(F)(F)c1ccc2cc(Br)ccc2c1` (stereo partly drawn) [Compound 40-1, N-((2R)-3-(3-amino-8-azabicyclo[3.2.1]octan-8-yl)-1-(6-bromonaphthalen-2-yl)-1,1-difluoro-3-oxopropan-2-yl)-4-(cyclohexylmethoxy) benzenesulfonamide trifluoroacetate], for which the half-inhibitory concentration (IC50) was in the range of 1 to 10 µM.

With `NC1CC2CCC(C1)N2C(=O)[C@H](NS(=O)(=O)c1ccc(OCC2CCCCC2)cc1)C(F)(F)c1ccc2cc(Br)ccc2c1` (stereo partly drawn) [Compound 40-2, N-((2S)-3-(3-amino-8-azabicyclo[3.2.1]octan-8-yl)-1-(6-bromonaphthalen-2-yl)-1,1-difluoro-3-oxopropan-2-yl)-4-(cyclohexylmethoxy)benzenesulfonamide trifluoroacetate], the IC50 is 10 to 30 µM.

`NC1CC2CCC(C1)N2C(=O)[C@@H](NC(=O)[C@@H](O)c1ccc2cc(OC3CCCC3)ccc2c1)C(F)(F)c1ccc(Br)cc1` (stereo partly drawn) [Compound 41-3, (2S)—N-((2R)-3-(3-amino-8-azabicyclo[3.2.1]octan-8-yl)-1-(4-bromophenyl)-1,1-difluoro-3-oxopropan-2-yl)-2-(6-(cyclopentyloxy)naphthalen-2-yl)-2-hydroxyacetamide trifluoroacetate] gave a half-maximal inhibitory concentration (IC50) of 1 to 10 µM.

On to `NC1CC2CCC(C1)N2C(=O)[C@H](NC(=O)[C@H](O)c1ccc2cc(OC3CCCC3)ccc2c1)C(F)(F)c1ccc(Br)cc1` (stereo partly drawn) [Compound 41-4, (2R)—N-((2S)-3-(3-amino-8-azabicyclo[3.2.1]octan-8-yl)-1-(4-bromophenyl)-1,1-difluoro-3-oxopropan-2-yl)-2-(6-(cyclopentyloxy)naphthalen-2-yl)-2-hydroxyacetamide trifluoroacetate], for which the concentration for half-maximal inhibition (IC50) lay in the range of 30 to 100 µM.

As for `NC1CC2CCC(C1)N2C(=O)[C@@H](NC(=O)[C@H](O)c1ccc2cc(OC3CCCC3)ccc2c1)C(F)(F)c1ccc(Br)cc1` (stereo partly drawn) [Compound 41-5, (2R)—N-((2R)-3-(3-amino-8-azabicyclo[3.2.1]octan-8-yl)-1-(4-bromophenyl)-1,1-difluoro-3-oxopropan-2-yl)-2-(6-(cyclopentyloxy)naphthalen-2-yl)-2-hydroxyacetamide trifluoroacetate], the IC50 lay within 10 to 30 µM.

The record behind these values is US20190322676A1, “CERAMIDE GALACTOSYLTRANSFERASE INHIBITORS FOR THE TREATMENT OF DISEASE” (BioMarin Pharmaceutical Inc., priority 2016, published 2019).
